The values below come from BindingDB's records for patent US20250382308 (Nuevolution, 2025).

Test [1] addresses T1, Bromodomain-containing protein 4 [353-454] (Homo sapiens, UniProt O60885).
T1 construct: 353-454
Description: Bromodomain Assay. Here is the method:
(§1) The liganded beads were blocked with excess biotin and washed with blocking buffer (SeaBlock (Pierce), 1% BSA (bovine serum albumin), 0.05% Tween 20, 1 mM DTT (dithiothreitol)) to remove unbound ligand and to reduce non-specific phage binding. […] Test compounds were prepared as 1000× stocks in 100% DMSO and subsequently diluted 1:10 in monoethylene glycol (MEG) to create stocks at 100× the screening concentration (resulting stock solution is 10% DMSO/90% MEG). The compounds were then diluted directly into the assays such that the final concentration of DMSO and MEG were 0.1% and 0.9%, respectively. All reactions were performed in polystyrene 96-well plates in a final volume of 0.135 ml. […] The bromodomain concentration in the eluates was measured by qPCR (quantitative real-time polymerase chain reaction).

Test [2] addresses T2, Bromodomain-containing protein 4 [58-164] (Homo sapiens, UniProt O60885).
T2 construct: 58-164
Kind of test: Bromodomain Assay. The method, then:
as §1

Test [3] addresses cGMP-inhibited 3',5'-cyclic phosphodiesterase 3A (Homo sapiens, UniProt Q14432). Description: Radiometric PDE3A Assay. The method, then:
Partially purified human recombinant phosphodiesterase (PDE3A) was obtained by cloning cDNA and expressing in S. frugiperda insect cells using a baculovirus expression system. Cells were harvested from culture by centrifuging at 400×g for 5 minutes. Cell pellet was resuspended in 20 ml of RIPA Buffer (150 mM NaCl, 10 mM Tris, 0.1% NP-40, pH8.3), 4 ml/200 ml of culture, plus protease inhibitors (100 μl/10 ml) and incubated on ice for 10-20 minutes then spun at 3500×g for 10 minutes at 4° C. Supernatant was kept and the pellet thrown away. Tritium-labeled cyclic AMP was hydrolysed to 5′-AMP by PDE3A. The 5′-AMP was then further hydrolysed to adenosine by nucleotidase in snake venom. An anion-exchange resin binds all charged nucleotides and leaves [3H]adenosine as the only labeled compound to be counted by liquid scintillation. The radiometric assay method is a modification of the two-step method of Thompson and Appleman [Biochemistry 10; 311-316; 1971], adapted for a 96 well plate format. 50 μl of diluted PDE3A was incubated with 50 μl of [3H]-CAMP (specific activity 25 Ci/mmol) and 11 μl of 50% DMSO (or compound dilution) for 20 minutes at 30° C. […] 50 μl of supernatant was removed and added to 200 μl of MicroScint-20 in white plates (Greiner 96-well Optiplate) and shaken for 30 minutes before reading on Perkin Elmer TopCount Scintillation Counter.

One may read the Kd as the equilibrium constant for the complex coming apart. As usually defined, the IC50 is the concentration that gives 50% inhibition. A higher IC50 goes with weaker potency.

cGMP-inhibited 3',5'-cyclic phosphodiesterase 3A, sequence (Q14432 whole entry): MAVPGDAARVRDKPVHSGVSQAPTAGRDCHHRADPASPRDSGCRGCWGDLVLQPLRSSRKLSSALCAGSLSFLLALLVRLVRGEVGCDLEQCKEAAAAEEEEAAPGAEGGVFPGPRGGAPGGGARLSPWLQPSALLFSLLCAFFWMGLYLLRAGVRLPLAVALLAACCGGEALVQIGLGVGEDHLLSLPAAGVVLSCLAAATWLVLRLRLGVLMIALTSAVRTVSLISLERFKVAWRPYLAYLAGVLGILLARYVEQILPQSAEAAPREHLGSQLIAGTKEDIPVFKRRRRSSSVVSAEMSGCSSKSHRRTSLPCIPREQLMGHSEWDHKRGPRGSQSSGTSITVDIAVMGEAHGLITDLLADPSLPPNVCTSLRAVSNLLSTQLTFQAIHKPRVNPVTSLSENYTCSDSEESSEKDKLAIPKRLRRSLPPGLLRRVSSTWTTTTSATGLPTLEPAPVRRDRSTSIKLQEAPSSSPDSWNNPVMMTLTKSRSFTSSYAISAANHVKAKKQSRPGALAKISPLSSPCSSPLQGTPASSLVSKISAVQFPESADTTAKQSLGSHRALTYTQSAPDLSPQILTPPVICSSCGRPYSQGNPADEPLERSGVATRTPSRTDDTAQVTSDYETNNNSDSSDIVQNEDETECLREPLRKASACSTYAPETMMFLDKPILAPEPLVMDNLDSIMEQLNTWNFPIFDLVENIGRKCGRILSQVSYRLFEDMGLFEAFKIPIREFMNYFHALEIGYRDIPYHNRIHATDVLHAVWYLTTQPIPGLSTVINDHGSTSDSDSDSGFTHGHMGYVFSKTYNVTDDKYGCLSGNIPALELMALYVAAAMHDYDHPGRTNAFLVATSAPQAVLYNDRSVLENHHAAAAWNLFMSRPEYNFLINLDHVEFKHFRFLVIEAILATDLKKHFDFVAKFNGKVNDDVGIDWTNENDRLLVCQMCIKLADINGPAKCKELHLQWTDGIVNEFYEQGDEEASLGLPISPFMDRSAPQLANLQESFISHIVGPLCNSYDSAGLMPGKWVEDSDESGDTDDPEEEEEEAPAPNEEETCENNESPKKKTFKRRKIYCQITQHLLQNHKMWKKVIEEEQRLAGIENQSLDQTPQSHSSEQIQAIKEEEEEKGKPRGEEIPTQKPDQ

On to `COc1cc(NC(=O)c2cc3c(nc2N2CCC(F)(F)C2)COC3)cc2c(C)cc(=O)[nH]c12` [US20250382308, Example 16], for which the values for the dissociation constant (Kd) in test [1] and in test [2] were 0.9 µM and 0.021 µM, respectively.

On to `CCN(CC)c1nc2c(cc1C(=O)Nc1cc(OC)c3[nH]c(=O)cc(C)c3c1)COC2` [US20250382308, Example 27], for which the Kd stood at 0.6 µM in test [1] and 0.025 µM in test [2]. The compound further gave an IC50 in test [3] of over 10 µM.
